Reference: US20240423995A1, “C-KIT INHIBITORS AND USES FOR TREATING AND PREVENTING INFLAMMATORY CONDITIONS” (GEORGETOWN UNIVERSITY, priority 2023, published 2024)

What was measured:
mast cells (spleen) = experiment: MC maturation in the spleen of transgenic APP mice by flow cytometry; format: in vivo; settings: 20 and 40 mg/kg intraperitoneal, six weeks, vs DMSO
Description: The studies in this example compared the number of immature MCs to the number of mature MCs in the spleen.
12-month-old transgenic APP mice were injected intraperitoneally with 20 mg/kg BK40196, 40 mg/kg BK40196, or DMSO for six weeks before having spleens collected for analysis. Spleen samples were then treated with the three flow-conjugated antibodies and analyzed for maturation of mast cell progenitors to mature mast cells, as described in Example 5. Differences were compared using an unpaired Student's t-test.

[1] = Maximum tolerated dose in wild-type C57BL/6 mice; settings: mouse, in vivo, ip, intraperitoneal injection, per day
Description: (§1) Wild-type C57BL/6 mice were dosed with BK40197 via intraperitoneal injection at 50 mg/kg (maximum tolerated dose) per day for five days before blood samples were taken and peripheral mast cells were isolated via flow cytometry. Cell gating was performed using antibodies against specific epitopes for cells: CD45 antibody for leukocytes, FceR1 antibody for mature mast cells, and CD117 antibody for immature and mature mast cells.

peripheral mast cells = experiment: Mature peripheral mast cells in blood of wild-type C57BL/6 mice by flow cytometry; format: in vivo; settings: 50 mg/kg per day intraperitoneal for five days, p=0.06
Description: as §1

Compound | total number of mature MCs (CD117+/FceR1+) in the spleen (mast cells (spleen); dose-dependent) | total number of mature MCs (FceR1+) in the spleen (mast cells (spleen); dose-dependent) | ratio of immature MCs (CD117 only) to mature MCs (CD117 and FceR1) in the spleen (mast cells (spleen)) | MTD at 5 days [1] | reduction of gating for mature MCs (CD117+/FceR1+) compared to DMSO (peripheral mast cells)
Cc1cccc(-c2cc3nccc(Nc4cccc(O)c4)c3s2)c1 [BK40196] | significantly reduced | significantly reduced | increased | – | –
Cc1cccc(-c2cc3nccc(N4CCOCC4)c3s2)c1 [BK40197] | – | – | – | 50 mg/kg | 48%
